Biological target: T1, human β3 adrenergic receptor (Homo sapiens, UniProt P13945)
T1 construct: expressed in transfected cells; host or cells: CHO (Chinese hamster ovary) cells, stably transfected
Test: Beta-3 agonist in vitro functional assay (cAMP production, LANCE, transfected CHO cells)
Assay type: cell-based
Conditions: Table 1, CHO cells with cloned β3 receptor, ligands titrated 10^-10 M to 10^-5 M, read-out: Human β3 agonist functional activity
Protocol: Functional Assay: For compounds in examples 1-50, cAMP production in response to ligand is measured according to Barton, et al. (1991, Agonist-induced desensitization of D2 dopamine receptors in human Y-79 retinoblastoma cells. Mol. Pharmacol. […]:650-658) modified as follows. The cAMP production is measured using a homogenous time-resolved fluorescence resonance energy transfer immunoassay (LANCE™, Perkin Elmer) according to the manufacture's instructions. Chinese hamster ovary (CHO) cells, stably transfected with the cloned β-adrenergic receptor (β1, β2 or β3) are harvested after 3 days of subculturing. Harvesting of cells is done with Enzyme-free Dissociation Media (Specialty Media). Cells are then counted and resuspended in assay buffer (Hank's Balanced salt solution supplemented with 5 mM HEPES, […]) containing a phosphodiesterase inhibitor (IBMX, 0.6 mM). The reaction is initiated by mixing 6,000 cells in 6 μL with 6 μL Alexa Fluor labeled cAMP antibody (LANCE™ kit) which is then added to an assay well containing 12 μL of compound (diluted in assay buffer to 2× final concentration). The reaction proceeds for 30 minutes at RT and is terminated by the addition of 24 ul detection buffer (LANCE™ kit). The assay plate is then incubated for 1 h at RT and time-resolved fluorescence measured on a Perkin Elmer Envision reader or equivalent. The unknown cAMP level is determined by comparing fluorescence levels to a cAMP standard curve.
The non-selective, full agonist β-adrenergic ligand isoproterenol is used at all three receptors to determine maximal stimulation. The human β3 adrenergic receptor (AR) selective ligand (S)-N-[4-[2-[[2-hydroxy-3-(4-hydroxyphenoxy)propyl]amino]ethyl]-phenyl]-4-iodobenzenesulfonamide is used as a control in all assays. […] The EC50 is defined as the concentration of compound that gives 50% activation of its own maximum. Data are analyzed using Microsoft Excel and Graphpad Prism or an internally developed data analysis software package.
The EC50 is defined as the concentration of compound that gives 50% activation of its own maximum. Functional antagonist assays are performed similar to described above; however, unknown ligands are titrated at β-adrenergic receptor subtypes 1 and 2 at a final concentration in the assay of 10^-12 M to 10^-5 M in the presence of 10^-9 M full agonist β-adrenergic ligand isoproterenol. The EC50 is defined as the concentration of compound that gives 50% inhibition of the full agonist response. Data are analyzed using Microsoft Excel and Graphpad Prism or an internally developed data analysis software package.

T1 sequence (P13945 whole entry): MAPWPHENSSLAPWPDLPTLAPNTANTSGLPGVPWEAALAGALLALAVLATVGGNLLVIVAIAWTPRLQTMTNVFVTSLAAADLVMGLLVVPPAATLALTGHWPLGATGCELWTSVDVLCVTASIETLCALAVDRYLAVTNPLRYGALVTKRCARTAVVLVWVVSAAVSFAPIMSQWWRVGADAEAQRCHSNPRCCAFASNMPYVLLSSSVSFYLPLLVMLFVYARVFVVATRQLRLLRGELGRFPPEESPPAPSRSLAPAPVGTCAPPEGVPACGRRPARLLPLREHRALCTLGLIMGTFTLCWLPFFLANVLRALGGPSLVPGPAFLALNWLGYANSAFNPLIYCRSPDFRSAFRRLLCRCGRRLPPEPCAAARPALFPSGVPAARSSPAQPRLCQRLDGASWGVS

EC50	SMILES
100 to 999 nM	O=C(NC1CCc2scnc21)c1ccc(C[C@@H]2CC[C@H]([C@H](O)c3ccccc3)N2)cc1 (stereo partly shown) [Example 47]
100 to 999 nM	O=C(NC1CCCc2cccnc21)c1ccc(C[C@@H]2CC[C@H]([C@H](O)c3ccccc3)N2)cc1 (stereo partly shown) [Example 48]
100 to 999 nM	CN1CCC(NC(=O)c2ccc(C[C@@H]3CC[C@H]([C@H](O)c4cccnc4)N3)cc2)C1=O (stereo partly shown) [Example 49]

Same assay, conditions: Table 2, CHO cells with cloned β3 receptor, ligands titrated 10^-10 M to 10^-5 M, read-out: Human β3 agonist functional activity

SMILES	EC50
Cc1cc(C)nc(CNC(=O)c2ccc(C[C@@H]3CC[C@H]([C@H](O)c4ccc(F)cc4)N3)cc2)n1 [Example 50]	10 to 99.9 nM

Same assay, conditions: Table 3, CHO cells with cloned β3 receptor, ligands titrated 10^-12 M to 10^-5 M, read-out: Human β3 agonist functional activity

EC50	SMILES
100 to 999 nM	CN(Cc1cc2ccccc2cn1)C(=O)c1ccc(C[C@@H]2CC[C@H]([C@H](O)c3ccccc3)N2)cc1 [Example 52]
10 to 99.9 nM	CN(CCc1cccnc1)C(=O)c1ccc(C[C@@H]2CC[C@H]([C@H](O)c3ccccc3)N2)cc1 [Example 53]
100 to 999 nM	CN(Cc1ccccn1)C(=O)c1ccc(C[C@@H]2CC[C@H]([C@H](O)c3ccccc3)N2)cc1 [Example 54]
100 to 999 nM	CN(Cc1cccnn1)C(=O)c1ccc(C[C@@H]2CC[C@H]([C@H](O)c3ccccc3)N2)cc1 [Example 55]
10 to 99.9 nM	CN(Cc1cccnn1)C(=O)c1ccc(C[C@@H]2CC[C@H]([C@H](O)c3ccc(N)nc3)N2)cc1 [Example 56]
10 to 99.9 nM	CN(Cc1cc(Br)ccn1)C(=O)c1ccc(C[C@@H]2CC[C@H]([C@H](O)c3ccccc3)N2)cc1 [Example 57]
10 to 99.9 nM	CN(Cc1cnn(-c2ccccc2)n1)C(=O)c1ccc(C[C@@H]2CC[C@H]([C@H](O)c3ccccc3)N2)cc1 [Example 58]
1 to 9.9 nM	CN(Cc1cccc(F)c1)C(=O)c1ccc(C[C@@H]2CC[C@H]([C@H](O)c3ccccc3)N2)cc1 [Example 60]
1 to 9.9 nM	CN(Cc1cnc2ccccc2n1)C(=O)c1ccc(C[C@@H]2CC[C@H]([C@H](O)c3ccccc3)N2)cc1 [Example 61]
10 to 99.9 nM	Cc1cccnc1CN(C)C(=O)c1ccc(C[C@@H]2CC[C@H]([C@H](O)c3ccccc3)N2)cc1 [Example 62]
10 to 99.9 nM	COCCN(C)C(=O)c1ccc(C[C@@H]2CC[C@H]([C@H](O)c3ccccc3)N2)cc1 [Example 64]
10 to 99.9 nM	COc1ccccc1CN(C)C(=O)c1ccc(C[C@@H]2CC[C@H]([C@H](O)c3ccccc3)N2)cc1 [Example 65]
10 to 99.9 nM	Cc1nc(CN(C)C(=O)c2ccc(C[C@@H]3CC[C@H]([C@H](O)c4ccccc4)N3)cc2)cs1 [Example 66]
10 to 99.9 nM	Cc1cccc(CN(C)C(=O)c2ccc(C[C@@H]3CC[C@H]([C@H](O)c4ccccc4)N3)cc2)n1 [Example 67]
100 to 999 nM	CN(Cc1nc2ccccc2n1C)C(=O)c1ccc(C[C@@H]2CC[C@H]([C@H](O)c3ccccc3)N2)cc1 [Example 70]
10 to 99.9 nM	CN(Cc1nnn(C)n1)C(=O)c1ccc(C[C@@H]2CC[C@H]([C@H](O)c3ccccc3)N2)cc1 [Example 72]
100 to 999 nM	CN(Cc1ncn(C)n1)C(=O)c1ccc(C[C@@H]2CC[C@H]([C@H](O)c3ccccc3)N2)cc1 [Example 73]
10 to 99.9 nM	CN(Cc1cnccn1)C(=O)c1ccc(C[C@@H]2CC[C@H]([C@H](O)c3ccccc3)N2)cc1 [Example 74]
1 to 9.9 nM	CN(Cc1nn(C)c(Cl)c1Cl)C(=O)c1ccc(C[C@@H]2CC[C@H]([C@H](O)c3ccccc3)N2)cc1 [Example 75]
100 to 999 nM	CN(Cc1nccn1C)C(=O)c1ccc(C[C@@H]2CC[C@H]([C@H](O)c3ccccc3)N2)cc1 [Example 76]
10 to 99.9 nM	CN(Cc1cccc(Br)n1)C(=O)c1ccc(C[C@@H]2CC[C@H]([C@H](O)c3ccccc3)N2)cc1 [Example 77]
10 to 99.9 nM	CN(Cc1ccc(Br)cn1)C(=O)c1ccc(C[C@@H]2CC[C@H]([C@H](O)c3ccccc3)N2)cc1 [Example 78]
100 to 999 nM	CN(Cc1ccncn1)C(=O)c1ccc(C[C@@H]2CC[C@H]([C@H](O)c3ccccc3)N2)cc1 [Example 79]

EC50	SMILES
1 to 9.9 nM	CC(C)c1nccc(CN(C)C(=O)c2ccc(C[C@@H]3CC[C@H]([C@H](O)c4ccccc4)N3)cc2)n1 [Example 80]
10 to 99.9 nM	Cc1nccc(CN(C)C(=O)c2ccc(C[C@@H]3CC[C@H]([C@H](O)c4ccccc4)N3)cc2)n1 [Example 81]
10 to 99.9 nM	Cc1cc(CN(C)C(=O)c2ccc(C[C@@H]3CC[C@H]([C@H](O)c4ccccc4)N3)cc2)on1 [Example 82]
100 to 999 nM	CN(Cc1cccc(N2CCCC2)n1)C(=O)c1ccc(C[C@@H]2CC[C@H]([C@H](O)c3ccccc3)N2)cc1 [Example 83]
100 to 999 nM	CN(Cc1nc2ccccc2[nH]1)C(=O)c1ccc(C[C@@H]2CC[C@H]([C@H](O)c3ccccc3)N2)cc1 [Example 84]
< 1 nM	CN(Cc1n[nH]c2c1CCCC2)C(=O)c1ccc(C[C@@H]2CC[C@H]([C@H](O)c3ccccc3)N2)cc1 [Example 85]
10 to 99.9 nM	CN(Cc1ccon1)C(=O)c1ccc(C[C@@H]2CC[C@H]([C@H](O)c3ccccc3)N2)cc1 [Example 86]
1 to 9.9 nM	O=C(c1ccc(C[C@@H]2CC[C@H]([C@H](O)c3ccccc3)N2)cc1)N(CCO)Cc1ccccc1F [Example 87]
10 to 99.9 nM	Cc1csc(CCN(C)C(=O)c2ccc(C[C@@H]3CC[C@H]([C@H](O)c4ccccc4)N3)cc2)n1 [Example 88]
10 to 99.9 nM	CC(C)c1nc(CCN(C)C(=O)c2ccc(C[C@@H]3CC[C@H]([C@H](O)c4ccccc4)N3)cc2)no1 [Example 89]
< 1 nM	COCc1cc(CN(C)C(=O)c2ccc(C[C@@H]3CC[C@H]([C@H](O)c4ccccc4)N3)cc2)n[nH]1 [Example 90]
10 to 99.9 nM	CN(Cc1ccc2nccnc2c1)C(=O)c1ccc(C[C@@H]2CC[C@H]([C@H](O)c3ccccc3)N2)cc1 [Example 92]
10 to 99.9 nM	CC(C)c1noc(CN(C)C(=O)c2ccc(C[C@@H]3CC[C@H]([C@H](O)c4ccccc4)N3)cc2)n1 [Example 93]
10 to 99.9 nM	CN(Cc1cnn(-c2ccccc2)c1)C(=O)c1ccc(C[C@@H]2CC[C@H]([C@H](O)c3ccccc3)N2)cc1 [Example 97]
100 to 999 nM	Cc1cc2nc(CN(C)C(=O)c3ccc(C[C@@H]4CC[C@H]([C@H](O)c5ccccc5)N4)cc3)[nH]c2cc1C [Example 101]
100 to 999 nM	CN(Cc1nc(-c2ccncc2)no1)C(=O)c1ccc(C[C@@H]2CC[C@H]([C@H](O)c3ccccc3)N2)cc1 [Example 103]
10 to 99.9 nM	CCN(Cc1ccnc(C(C)C)n1)C(=O)c1ccc(C[C@@H]2CC[C@H]([C@H](O)c3ccccc3)N2)cc1 [Example 104]
10 to 99.9 nM	CN(Cc1ncccc1F)C(=O)c1ccc(C[C@@H]2CC[C@H]([C@H](O)c3ccccc3)N2)cc1 [Example 106]
100 to 999 nM	CN(Cc1cc(-c2ccncc2)on1)C(=O)c1ccc(C[C@@H]2CC[C@H]([C@H](O)c3ccccc3)N2)cc1 [Example 107]
100 to 999 nM	CN(Cc1cscn1)C(=O)c1ccc(C[C@@H]2CC[C@H]([C@H](O)c3ccccc3)N2)cc1 [Example 108]
100 to 999 nM	CN(Cc1cccc2ncccc12)C(=O)c1ccc(C[C@@H]2CC[C@H]([C@H](O)c3ccccc3)N2)cc1 [Example 109]
10 to 99.9 nM	CN(Cc1noc(C2CC2)n1)C(=O)c1ccc(C[C@@H]2CC[C@H]([C@H](O)c3ccccc3)N2)cc1 [Example 112]

SMILES	EC50
CN(Cc1cccnc1)C(=O)c1ccc(C[C@@H]2CC[C@H]([C@H](O)c3ccc(N)nc3)N2)cc1 [Example 59]	< 1 nM
CN(Cc1ccccc1)C(=O)c1ccc(C[C@@H]2CC[C@H]([C@H](O)c3ccccc3)N2)cc1 [Example 68]	100 to 999 nM
CN(C)C(=O)c1ccc(C[C@@H]2CC[C@H]([C@H](O)c3ccccc3)N2)cc1 [Example 69]	10 to 99.9 nM
CN(Cc1ccncc1)C(=O)c1ccc(C[C@@H]2CC[C@H]([C@H](O)c3ccccc3)N2)cc1 [Example 71]	100 to 999 nM
CN(CCC1CCOCC1)C(=O)c1ccc(C[C@@H]2CC[C@H]([C@H](O)c3ccccc3)N2)cc1 [Example 99]	100 to 999 nM

Same assay, conditions: given as a range, CHO cells with cloned β3 receptor, read-out: human Beta-3 agonist functional activity

EC50	SMILES
1 to 9.9 nM	CN(Cc1cccnc1)C(=O)c1ccc(C[C@@H]2CC[C@H]([C@H](O)c3ccccc3)N2)cc1 [Example 51, 4-({(2S,5R)-5-[(R)-hydroxy(phenyl)methyl]pyrrolidin-2-yl}methyl)-N-methyl-N-(pyridine-3-ylmethyl)benzamide]

— US8604038B2, “Pyrrolidine derived beta 3 adrenergic receptor agonists” (Merck Sharp & Dohme Corp., priority 2009, dated 2013)
